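Tested at 5 concentrations; 48 h exposure; 96-well plates; endpoints linearly interpolated, else capped at highest concentration. Here, GI50 denotes the concentration required for 50% inhibition of growth.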 Active and inactive are the calls of the source. No stated cut-off is given here; in the data, active = GI50 up to about 1.1 µM and inactive = higher.
Legend:
Test in all cases: NCI-60 cell line screen, 48 h
TK-10 = test system: TK-10
SW-620 = test system: SW-620
OVCAR-5 = test system: OVCAR-5
SK-MEL-2 = test system: SK-MEL-2
NCI-H460 = test system: NCI-H460
U-251 = test system: U-251
HCC 2998 = test system: HCC 2998
HT-29 = test system: HT-29
OVCAR-8 = test system: OVCAR-8
Malme-3M = test system: Malme-3M
SK-MEL-28 = test system: SK-MEL-28
NCI-H23 = test system: NCI-H23
K562 = test system: K562
RPMI-8226 = test system: RPMI-8226
HOP-92 = test system: HOP-92
786-0 = test system: 786-0
SNB-19 = test system: SNB-19
MDA-N = test system: MDA-N
MDA-MB-435 = test system: MDA-MB-435
DU-145 = test system: DU-145

| Structure (SMILES) | GI50 (TK-10) | GI50 (SW-620) | GI50 (OVCAR-5) | GI50 (SK-MEL-2) | GI50 (NCI-H460) | GI50 (U-251) | GI50 (HCC 2998) | GI50 (HT-29) | GI50 (OVCAR-8) | GI50 (Malme-3M) | GI50 (SK-MEL-28) | GI50 (NCI-H23) | GI50 (K562) | GI50 (RPMI-8226) | GI50 (HOP-92) | GI50 (786-0) | GI50 (SNB-19) | GI50 (MDA-N) | GI50 (MDA-MB-435) | GI50 (DU-145) |
| --- | --- | --- | --- | --- | --- | --- | --- | --- | --- | --- | --- | --- | --- | --- | --- | --- | --- | --- | --- | --- |
| O=c1/c(=C/c2ccco2)sc2nc3ccccc3n12 | 50 µM (inactive) | > 10 µM (inactive) | > 10 µM (inactive) | > 10 µM (inactive) | > 10 µM (inactive) | > 10 µM (inactive) | > 10 µM (inactive) | > 10 µM (inactive) | > 10 µM (inactive) | > 10 µM (inactive) | > 10 µM (inactive) | > 10 µM (inactive) | > 10 µM (inactive) | > 10 µM (inactive) | > 10 µM (inactive) | > 10 µM (inactive) | > 10 µM (inactive) |  |  |  |
| CC(=O)O[C@@H]1O[Si](C(C)(C)C)(C(C)(C)C)[C@H](C)[C@H]1C | > 100 µM (inactive) | 40 µM (inactive) | > 100 µM (inactive) | > 100 µM (inactive) |  | 43.7 µM (inactive) | 92.7 µM (inactive) | 18.6 µM (inactive) | > 100 µM (inactive) | 7.91 µM (inactive) | > 100 µM (inactive) | > 100 µM (inactive) | 31.8 µM (inactive) | 45.1 µM (inactive) |  | 33.5 µM (inactive) | > 100 µM (inactive) | > 100 µM (inactive) | 94.8 µM (inactive) |  |
| COC[C@H](Cc1ccccc1)/N=C/c1ccccc1 | > 100 µM (inactive) | > 100 µM (inactive) | > 100 µM (inactive) | > 100 µM (inactive) | > 100 µM (inactive) | > 100 µM (inactive) | > 100 µM (inactive) | > 100 µM (inactive) | > 100 µM (inactive) | > 100 µM (inactive) | > 100 µM (inactive) | > 100 µM (inactive) | > 100 µM (inactive) | > 100 µM (inactive) |  | > 100 µM (inactive) | > 100 µM (inactive) |  | > 100 µM (inactive) | > 100 µM (inactive) |
| CC(=O)OC[C@@H](COC(=O)/C=C/c1ccc(O)cc1)OC1OC(CO)C(O)C(O)C1O (some centres undefined) | > 100 µM (inactive) | > 100 µM (inactive) | > 100 µM (inactive) | > 100 µM (inactive) | > 100 µM (inactive) | > 100 µM (inactive) | > 100 µM (inactive) | > 100 µM (inactive) | > 100 µM (inactive) | > 100 µM (inactive) | > 100 µM (inactive) | > 100 µM (inactive) | > 100 µM (inactive) | > 100 µM (inactive) | > 100 µM (inactive) | > 100 µM (inactive) | > 100 µM (inactive) |  |  | > 100 µM (inactive) |
| COP1(=O)OCc2cnccc2O1 (centres undefined) | > 100 µM (inactive) | > 100 µM (inactive) | > 100 µM (inactive) | > 100 µM (inactive) | > 100 µM (inactive) | > 100 µM (inactive) | > 100 µM (inactive) | > 100 µM (inactive) | > 100 µM (inactive) | > 100 µM (inactive) | > 100 µM (inactive) | > 100 µM (inactive) | > 100 µM (inactive) | > 100 µM (inactive) |  | > 100 µM (inactive) | > 100 µM (inactive) | > 100 µM (inactive) | > 100 µM (inactive) |  |
| C/C=C1\CN2CCc3c([nH]c4ccccc34)C2CC1C(=O)OC (centres undefined) | > 322 µM (inactive) | > 322 µM (inactive) | > 322 µM (inactive) | > 322 µM (inactive) | > 322 µM (inactive) | > 322 µM (inactive) | > 322 µM (inactive) | > 322 µM (inactive) | > 322 µM (inactive) | > 322 µM (inactive) | > 322 µM (inactive) | > 322 µM (inactive) | > 322 µM (inactive) | > 322 µM (inactive) | 169 µM (inactive) | > 322 µM (inactive) | > 322 µM (inactive) |  |  |  |
| CC(=O)NC(CCCNC(=O)OCc1ccccc1)C(=O)NCc1ccccc1 (centres undefined) | > 100 µM (inactive) | > 100 µM (inactive) | > 100 µM (inactive) | > 100 µM (inactive) | > 100 µM (inactive) | > 100 µM (inactive) | > 100 µM (inactive) | > 100 µM (inactive) | > 100 µM (inactive) | > 100 µM (inactive) | > 100 µM (inactive) | > 100 µM (inactive) | > 100 µM (inactive) | > 100 µM (inactive) | > 100 µM (inactive) | > 100 µM (inactive) | > 100 µM (inactive) |  |  |  |
| COc1cc(Br)c(OC)c2c(OC)cc(C)cc12 | > 100 µM (inactive) | > 100 µM (inactive) | > 100 µM (inactive) | > 100 µM (inactive) | > 100 µM (inactive) | > 100 µM (inactive) | > 100 µM (inactive) | 67.8 µM (inactive) | > 100 µM (inactive) | > 100 µM (inactive) | > 100 µM (inactive) | > 100 µM (inactive) | 67 µM (inactive) | 54.5 µM (inactive) |  | 75.7 µM (inactive) | > 100 µM (inactive) |  | 70.6 µM (inactive) | > 100 µM (inactive) |
| O=C(CNc1cccc([N+](=O)[O-])c1)Nn1c(-c2ccccc2)nc2ccccc2c1=O | 0.363 µM (active) | 0.33 µM (active) | 1.77 µM (inactive) |  | 0.555 µM (active) | 1.05 µM (active) | 1.49 µM (inactive) | 0.312 µM (active) | 1.59 µM (inactive) | 0.973 µM (active) | 0.513 µM (active) | 0.653 µM (active) | 0.528 µM (active) | 0.478 µM (active) |  | 0.399 µM (active) | 2.11 µM (inactive) |  | 2.02 µM (inactive) | 2.38 µM (inactive) |
| O=C(O)C12C3C4C1C1C2C3C41I (centres undefined) | > 100 µM (inactive) | > 100 µM (inactive) | > 100 µM (inactive) | > 100 µM (inactive) | > 100 µM (inactive) | > 100 µM (inactive) | > 100 µM (inactive) | > 100 µM (inactive) | > 100 µM (inactive) | > 100 µM (inactive) | > 100 µM (inactive) | > 100 µM (inactive) | > 100 µM (inactive) | > 100 µM (inactive) | > 100 µM (inactive) | > 100 µM (inactive) | > 100 µM (inactive) |  |  |  |
| c1ccc(CSc2nc(N3CCCCC3)c3cn[nH]c3n2)cc1 | 30.1 µM (inactive) | 19.9 µM (inactive) | 27.9 µM (inactive) | 16.2 µM (inactive) | 22.8 µM (inactive) | 19.1 µM (inactive) | 18.7 µM (inactive) | 31.8 µM (inactive) | 23.4 µM (inactive) | 20.4 µM (inactive) | 19.9 µM (inactive) | 26.4 µM (inactive) | 40.3 µM (inactive) | 26.6 µM (inactive) | 21.3 µM (inactive) | 25.2 µM (inactive) | 25.2 µM (inactive) |  | 22.4 µM (inactive) | 30.3 µM (inactive) |
| Cc1cc(=O)oc2c1cc(OCC(=O)OCCN1CCCCC1)c1occ(C)c12 | > 100 µM (inactive) | > 100 µM (inactive) | > 100 µM (inactive) | > 100 µM (inactive) | > 100 µM (inactive) | > 100 µM (inactive) | > 100 µM (inactive) | > 100 µM (inactive) | > 100 µM (inactive) | > 100 µM (inactive) | > 100 µM (inactive) | > 100 µM (inactive) | > 100 µM (inactive) | > 100 µM (inactive) | > 100 µM (inactive) | > 100 µM (inactive) | > 100 µM (inactive) |  |  |  |
| CC(O)c1nc(C#N)c(N)o1 (centres undefined) | > 100 µM (inactive) | > 100 µM (inactive) | > 100 µM (inactive) | > 100 µM (inactive) |  | > 100 µM (inactive) |  | > 100 µM (inactive) | > 100 µM (inactive) | > 100 µM (inactive) | > 100 µM (inactive) | > 100 µM (inactive) | > 100 µM (inactive) | > 100 µM (inactive) | > 100 µM (inactive) | > 100 µM (inactive) | > 100 µM (inactive) | > 100 µM (inactive) |  | > 100 µM (inactive) |
| CNC(=O)N(CCCC(NC(C)=O)C(=O)NCc1ccccc1)Cc1ccccc1 (centres undefined) | > 100 µM (inactive) | > 100 µM (inactive) | > 100 µM (inactive) | > 100 µM (inactive) | > 100 µM (inactive) | > 100 µM (inactive) | > 100 µM (inactive) | > 100 µM (inactive) | > 100 µM (inactive) | > 100 µM (inactive) | > 100 µM (inactive) | > 100 µM (inactive) | > 100 µM (inactive) | > 100 µM (inactive) | > 100 µM (inactive) | > 100 µM (inactive) | > 100 µM (inactive) |  |  |  |
| CCCCC/C=C\C=C\CCCCCCCCC(=O)OC | > 100 µM (inactive) | > 100 µM (inactive) | > 100 µM (inactive) | > 100 µM (inactive) | > 100 µM (inactive) | > 100 µM (inactive) |  | > 100 µM (inactive) | > 100 µM (inactive) | > 100 µM (inactive) | > 100 µM (inactive) | > 100 µM (inactive) | > 100 µM (inactive) | > 100 µM (inactive) | > 100 µM (inactive) | > 100 µM (inactive) | > 100 µM (inactive) | > 100 µM (inactive) |  | > 100 µM (inactive) |
| CCC1(OC(C)=O)C(=O)OCc2c1cc1n(c2=O)Cc2cc3ccccc3nc2-1 (centres undefined) | > 100 µM (inactive) | 5.83 µM (inactive) | 2.37 µM (inactive) | > 80 µM (inactive) | 0.262 µM (active) | 0.289 µM (active) | 4.42 µM (inactive) | 3.63 µM (inactive) | 2.45 µM (inactive) | 3.44 µM (inactive) | 14 µM (inactive) | 0.966 µM (active) | 3.1 µM (inactive) | 4.2 µM (inactive) | 24.8 µM (inactive) | 0.564 µM (active) | 0.962 µM (active) |  |  |  |
